Measurements published in patent US10005824B2, “Selective PYY compounds and uses thereof” (Novo Nordisk A/S, priority 2015, dated 2018).
Like-named read-outs stand apart in the source and are kept apart here.

How the values were obtained:
human NPY Y2 receptor = target: T1, human NPY Y2 receptor (Homo sapiens, UniProt P49146); assay: Actone functional potency assay (Y2 in vitro potency, whole cell); assay type: cell-based
T1 construct: host or cells: HEK-293 cells that also express a cAMP-sensitive calcium channel
T1 sequence (P49146 1-381): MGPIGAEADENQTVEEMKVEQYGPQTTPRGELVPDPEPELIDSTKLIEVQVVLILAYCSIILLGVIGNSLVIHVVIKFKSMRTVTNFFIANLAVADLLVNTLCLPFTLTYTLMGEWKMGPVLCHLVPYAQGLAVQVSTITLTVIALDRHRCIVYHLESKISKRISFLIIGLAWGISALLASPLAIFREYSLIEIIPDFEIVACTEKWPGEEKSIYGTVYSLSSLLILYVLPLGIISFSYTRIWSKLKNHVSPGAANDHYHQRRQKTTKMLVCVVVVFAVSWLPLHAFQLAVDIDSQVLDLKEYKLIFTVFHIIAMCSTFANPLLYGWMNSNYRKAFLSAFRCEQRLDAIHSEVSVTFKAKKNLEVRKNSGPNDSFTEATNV
Description: The purpose of this example is to test the activity, or potency, of the PYY compounds in vitro. The Y2 in vitro potency is the measure of the activation of the human Y2 receptor subtype in a whole cell assay.
Actone Functional Potency Assay
The Neuropeptide Y (NPY) receptors are Gi-coupled seven trans-membrane receptors that mainly signal through the cAMP dependent pathway by inhibiting adenylate cyclase activity which results in a decrease of cAMP production from ATP. The Actone assay is based on a modified calcium channel that has a selective binding for cAMP, resulting in cellular calcium influx, detected by a calcium responsive dye. In order to measure decreased levels of cAMP, as result of NPY receptor activation, the β1/β2-adrenoreceptor agonist, isoproterenol, is added to activate adenylate cyclase and increases cAMP levels in the cell. Decreased cellular calcium concentrations, reflecting a decrease of cAMP levels due to NPY receptor activation, is detected as a decrease in fluorescence from the calcium sensitive dye.

human Y1 receptor = target: T2, human Y1 receptor (Homo sapiens, UniProt P25929); assay: Scintillation proximity assay (SPA) receptor binding, Y1
T2 construct: expressed in transfected cells; host or cells: BHK-21 clone 6-482-8, IPTG-induced (membrane preparation)
T2 sequence (P25929 1-384): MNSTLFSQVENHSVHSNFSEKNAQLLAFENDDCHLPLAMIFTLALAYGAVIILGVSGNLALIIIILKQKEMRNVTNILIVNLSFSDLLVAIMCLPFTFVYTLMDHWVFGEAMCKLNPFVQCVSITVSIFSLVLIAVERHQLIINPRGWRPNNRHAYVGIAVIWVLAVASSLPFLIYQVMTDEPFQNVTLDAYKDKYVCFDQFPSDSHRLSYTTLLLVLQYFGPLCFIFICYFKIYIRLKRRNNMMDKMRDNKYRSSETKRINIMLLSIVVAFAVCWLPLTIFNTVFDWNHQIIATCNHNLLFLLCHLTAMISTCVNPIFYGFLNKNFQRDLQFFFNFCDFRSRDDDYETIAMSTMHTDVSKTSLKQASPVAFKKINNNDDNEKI
Experimental: (§1) The purpose of this example is to test the in vitro binding of the PYY compounds to the Y1, Y2, Y4 and Y5 receptor subtypes, respectively. The receptor binding affinity is a measure of affinity of a compound for the human Y1, Y2, Y4 and Y5 receptor subtypes, respectively.
(§2) Scintillation Proximity Assay (SPA)
(§3) NPY-Receptor Expressing Cell Lines.
(§4) All cells were cultured at +37° C. in a humidified atmosphere with 5% CO2. […] CHO-K1 cells stably expressing the human Y2 receptor (P49146, NPY2R_HUMAN, Uniprot) were cultured in DMEM F-12 with 10% FBS, 1% P/S, 150 μg/ml Hygromycin B and 10 μg/ml Puromycin antibiotic. CHO-K1 cells stably expressing the human Y4 receptor (P50391, NPY4R_HUMAN, Uniprot) were cultured in DMEM F-12 with 10% FBS, 1% P/S, 10 μg/ml Puromycin. HEK-293 cells stably expressing the human Y5 receptor (Q15761, NPY5R_HUMAN, Uniprot) were cultured in DMEM F-12 medium containing 10% FBS, 1% Penicillin-Streptomycin, 250 μg/ml G418 and 1 μg/ml puromycin.
(§5) The homogenate was centrifuged at 35000 g using an ultracentrifuge for 10 minutes at +4° C. and the supernatant was discarded and fresh homogenization buffer added. Homogenization of the pellet was repeated a total of three times.
(§6) Human Y receptor SPA binding assay were performed in white 96-well plates in a total volume of 200 μl per well.
(§7) Plates were sealed and incubated at +25° C. for 2 hours in a plate shaker set at 400 rpm and thereafter centrifuged at 1500 rpm for 10 minutes prior to reading of luminescence on a microplate scintillation and luminescence counter. […] Displacement of radioligand was measured as reduction in luminescence and IC50 values were calculated by nonlinear regression analysis of sigmoidal dose-response curves.

human Y4 receptor = target: T3, human Y4 receptor (Homo sapiens, UniProt P50391); assay: Scintillation proximity assay (SPA) receptor binding, Y4; conditions: membranes of CHO-K1 cells, [125I]-Pancreatic Polypeptide
T3 construct: expressed in transfected cells; host or cells: CHO-K1 (membrane preparation)
T3 sequence (P50391 whole entry): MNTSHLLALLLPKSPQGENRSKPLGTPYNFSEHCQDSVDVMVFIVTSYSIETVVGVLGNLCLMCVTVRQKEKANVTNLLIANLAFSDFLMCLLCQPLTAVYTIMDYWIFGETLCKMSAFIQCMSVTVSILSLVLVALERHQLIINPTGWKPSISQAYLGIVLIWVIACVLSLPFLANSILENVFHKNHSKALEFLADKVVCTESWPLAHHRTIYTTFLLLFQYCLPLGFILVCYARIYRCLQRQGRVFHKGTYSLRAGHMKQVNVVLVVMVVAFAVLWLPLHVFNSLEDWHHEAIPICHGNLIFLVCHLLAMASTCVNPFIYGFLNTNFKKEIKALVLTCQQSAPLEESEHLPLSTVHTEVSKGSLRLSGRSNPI
Experimental: as §1, §2, §3, §4, §5, §6, §7

| Ki (human Y1 receptor; membranes of BHK-21 cells, [125I]-PYY(1-36), read-out: Y1 Ki) [µM] | Ki (human Y4 receptor; read-out: Y4 Ki) [µM] | Structure (SMILES) | EC50 (human NPY Y2 receptor) [µM] | Ki (human Y1 receptor) [µM] | Ki (human Y4 receptor; Y4 Ki) [µM] |
| --- | --- | --- | --- | --- | --- |
| – | – | CC(C)CC(=O)N[C@@H](CCCNC(=N)N)C(=O)N1CCC[C@H]1C(=O)N[C@@H](CCC(=O)O)C(=O)N[C@@H](CCCCNC(=O)CC[C@H](NC(=O)CCCCCCCCCCCCCCCCC(=O)O)C(=O)O)C(=O)N1CCC[C@H]1C(=O)N[C@H](C(=O)N[C@@H](CCC(=O)O)C(=O)N[C@@H](CC(=O)O)C(=O)N[C@@H](C)C(=O)N[C@@H](CO)C(=O)N1CCC[C@H]1C(=O)N[C@@H](CCC(=O)O)C(=O)N[C@@H](CCC(=O)O)C(=O)N[C@@H](CC(C)C)C(=O)N[C@@H](CCC(N)=O)C(=O)N[C@@H](CCCNC(=N)N)C(=O)N[C@@H](Cc1ccc(O)cc1)C(=O)N[C@@H](Cc1ccc(O)cc1)C(=O)N[C@@H](CCC(N)=O)C(=O)N[C@@H](CO)C(=O)N[C@@H](CC(C)C)C(=O)N[C@@H](CCCNC(=N)N)C(=O)N[C@@H](Cc1c[nH]cn1)C(=O)N[C@@H](Cc1ccc(O)cc1)C(=O)N[C@@H](Cc1ccc(O)cc1)C(=O)N[C@@H](CC(N)=O)C(=O)N[C@@H](Cc1c[nH]c2ccccc12)C(=O)N[C@@H](CC(C)C)C(=O)N[C@H](C(=O)N[C@@H](CCCNC(=N)N)C(=O)N[C@@H](CCC(N)=O)C(=O)N[C@@H](CCCNC(=N)N)C(=O)N[C@@H](Cc1ccc(O)cc1)C(N)=O)[C@@H](C)O)[C@@H](C)O [Compound 43, N{alpha-4}-(3-Methylbutanoyl)-N{Epsilon-7}-[(4S)-4-carboxy-4-(17-carboxy-heptadecanoylamino)butanoyl]-[Arg4,Lys7,Thr9,Gln18,Gln22,Tyr28,Trp30,Leu31]hPYY(4-36)] | 0.00077 | > 10 | – |
| – | – | CC(C)CC(=O)N[C@@H](CCCNC(=N)N)C(=O)N1CCC[C@H]1C(=O)N[C@@H](CCC(=O)O)C(=O)N[C@@H](C)C(=O)N1CCC[C@H]1C(=O)NCC(=O)N[C@@H](CCCCNC(=O)COCCOCCNC(=O)COCCOCCNC(=O)CC[C@H](NC(=O)CCCCCCCCCCCCCCCCC(=O)O)C(=O)O)C(=O)N[C@@H](CC(=O)O)C(=O)N[C@@H](C)C(=O)N[C@@H](CO)C(=O)N1CCC[C@H]1C(=O)N[C@@H](CCC(=O)O)C(=O)N[C@@H](CCC(=O)O)C(=O)N[C@@H](CC(C)C)C(=O)N[C@@H](CCC(N)=O)C(=O)N[C@@H](CCCNC(=N)N)C(=O)N[C@@H](Cc1ccc(O)cc1)C(=O)N[C@@H](Cc1ccc(O)cc1)C(=O)N[C@@H](CCC(=O)O)C(=O)N[C@@H](CO)C(=O)N[C@@H](CC(C)C)C(=O)N[C@@H](CCCNC(=N)N)C(=O)N[C@@H](Cc1c[nH]cn1)C(=O)N[C@@H](Cc1ccc(O)cc1)C(=O)N[C@@H](Cc1ccc(O)cc1)C(=O)N[C@@H](CC(N)=O)C(=O)N[C@@H](Cc1c[nH]c2ccccc12)C(=O)N[C@@H](CC(C)C)C(=O)N[C@H](C(=O)N[C@@H](CCCNC(=N)N)C(=O)N[C@@H](CCC(N)=O)C(=O)N[C@@H](CCCNC(=N)N)C(=O)N[C@@H](Cc1ccc(O)cc1)C(N)=O)[C@@H](C)O [Compound 51, N{alpha-4}-(3-Methylbutanoyl)-N{Epsilon-10}-[2-[2-[2-[[2-[2-[2-[[(4S)-4-carboxy-4-(17-carboxyheptadecanoylamino)butanoyl]amino]ethoxy]ethoxy]acetyl]-amino]ethoxy]ethoxy]acetyl]-[Arg4,Lys10,Gln18,Glu22,Tyr28,Trp30,Leu31]-PYY(4-36)] | – | 2.41 | > 10 |
| > 10 | 5.69 | CC(C)CC(=O)N[C@@H](CCCNC(=N)N)C(=O)N1CCC[C@H]1C(=O)N[C@@H](CCC(=O)O)C(=O)N[C@@H](C)C(=O)N1CCC[C@H]1C(=O)NCC(=O)N[C@@H](CCCCNC(=O)COCCOCCNC(=O)COCCOCCNC(=O)CC[C@H](NC(=O)CCCCCCCCCCCCCCCCC(=O)O)C(=O)O)C(=O)N[C@@H](CC(=O)O)C(=O)N[C@@H](C)C(=O)N[C@@H](CO)C(=O)N1CCC[C@H]1C(=O)N[C@@H](CCC(=O)O)C(=O)N[C@@H](CCC(=O)O)C(=O)N[C@@H](CC(C)C)C(=O)N[C@@H](CCC(N)=O)C(=O)N[C@@H](CCCNC(=N)N)C(=O)N[C@@H](Cc1ccc(O)cc1)C(=O)N[C@@H](Cc1ccc(O)cc1)C(=O)N[C@@H](C)C(=O)N[C@@H](CCC(=O)O)C(=O)N[C@@H](CC(C)C)C(=O)N[C@@H](CCCNC(=N)N)C(=O)N[C@@H](Cc1c[nH]cn1)C(=O)N[C@@H](Cc1ccc(O)cc1)C(=O)N[C@@H](Cc1ccc(O)cc1)C(=O)N[C@@H](CC(N)=O)C(=O)N[C@@H](Cc1c[nH]c2ccccc12)C(=O)N[C@@H](CC(C)C)C(=O)N[C@H](C(=O)N[C@@H](CCCNC(=N)N)C(=O)N[C@@H](CCC(N)=O)C(=O)N[C@@H](CCCNC(=N)N)C(=O)N[C@@H](Cc1ccc(O)cc1)C(N)=O)[C@@H](C)O [Compound 52, N{alpha-4}-(3-Methylbutanoyl)-N{Epsilon-10}-[2-[2-[2-[[2-[2-[2-[[(4S)-4-carboxy-4-(17-carboxyheptadecanoylamino)butanoyl]amino]ethoxy]ethoxy]acetyl]amino]-ethoxy]ethoxy]acetyl]-[Arg4,Lys10,Gln18,Glu23,Tyr28,Trp30,Leu31]-PYY(4-36)] | – | – | – |
| – | – | CC(C)CC(=O)N[C@@H](CCCNC(=N)N)C(=O)N1CCC[C@H]1C(=O)N[C@@H](CCC(=O)O)C(=O)N[C@@H](C)C(=O)N1CCC[C@H]1C(=O)N1CCC[C@H]1C(=O)N[C@@H](CCCCNC(=O)CC[C@H](NC(=O)COCCOCCNC(=O)CC[C@H](NC(=O)CCCCCCCCCCCCCCCCC(=O)O)C(=O)O)C(=O)O)C(=O)N[C@@H](CC(=O)O)C(=O)N[C@@H](C)C(=O)N[C@@H](CO)C(=O)N1CCC[C@H]1C(=O)N[C@@H](CCC(=O)O)C(=O)N[C@@H](CCC(=O)O)C(=O)N[C@@H](CC(C)C)C(=O)N[C@@H](CCC(N)=O)C(=O)N[C@@H](CCCNC(=N)N)C(=O)N[C@@H](Cc1ccc(O)cc1)C(=O)N[C@@H](Cc1ccc(O)cc1)C(=O)N[C@@H](CCC(=O)O)C(=O)N[C@@H](CO)C(=O)N[C@@H](CC(C)C)C(=O)N[C@@H](CCCNC(=N)N)C(=O)N[C@@H](Cc1c[nH]cn1)C(=O)N[C@@H](Cc1ccc(O)cc1)C(=O)N[C@@H](Cc1ccc(O)cc1)C(=O)N[C@@H](CC(N)=O)C(=O)N[C@@H](Cc1c[nH]c2ccccc12)C(=O)N[C@@H](CC(C)C)C(=O)N[C@H](C(=O)N[C@@H](CCCNC(=N)N)C(=O)N[C@@H](CCC(N)=O)C(=O)N[C@@H](CCCNC(=N)N)C(=O)N[C@@H](Cc1ccc(O)cc1)C(N)=O)[C@@H](C)O [Compound 54, N{alpha-4}-(3-Methylbutanoyl)-N{Epsilon-10}-[(4S)-4-carboxy-4-[[2-[2-[2-[[(4S)-4-carboxy-4-(17-carboxyheptadecanoylamino)butanoyl]amino]ethoxy]ethoxy]-acetyl]amino]butanoyl]-[Arg4,Pro9,Lys10,Gln18,Glu22,Tyr28,Trp30,Leu31]-PYY(4-36)] | 0.0016 | – | – |
